Laboratory results taken from ChEMBL document CHEMBL1134749, “Synthesis and structure-activity relationships of 5-substituted pyridine analogues of 3” (Bioorg Med Chem Lett, 2001).

The compounds below were run against Nicotinic acetylcholine receptor alpha3/betaX (assay: (§1) Antagonistic activity against neuronal nicotinic acetylcholine receptor (alpha3-betaX subunit) in IMR 32 cell line using 100 uM of (-)-nicotine as agonist).
Assay type: functional, cell-based, Homo sapiens

Structure (SMILES) | EC50
CN1CCC[C@H]1COc1cncc(-c2cncnc2)c1 | 32.4 µM

Each compound was assayed against Nicotinic acetylcholine receptor alpha3/betaX (assay: as §1).
Assay type: functional, cell-based

Structure (SMILES) | IC50
Cc1ccc(C#Cc2cncc(OC[C@@H]3CCCN3C)c2)cc1 | 1.5 µM
CN1CCC[C@H]1COc1cncc(-c2ccc(F)c(Cl)c2)c1 | 7.3 µM
CN1CCC[C@H]1COc1cncc(-c2cccc3ccccc23)c1 | 0.69 µM
CN1CCC[C@H]1COc1cncc(-c2ccccc2C=O)c1 | 6.31 µM
CN1CCC[C@H]1COc1cncc(CCc2ccccc2)c1 | 1.1 µM
CN1CCC[C@H]1COc1cncc(/C=C/c2ccccc2)c1 | 4.8 µM
CN1CCC[C@H]1COc1cncc(-c2cc3ccccc3n2C)c1 | 6.1 µM
CN1CCC[C@H]1COc1cncc(-c2ccc(F)cc2)c1 | 6.48 µM
CN1CCC[C@H]1COc1cncc(-c2cccs2)c1 | 1.7 µM
CN1CCC[C@H]1COc1cncc(-c2ccc(Cl)cc2Cl)c1 | 0.89 µM
COc1ccc(-c2cncc(OC[C@@H]3CCCN3C)c2)cc1 | 6.97 µM
Cc1ccc(-c2cncc(OC[C@@H]3CCCN3C)c2)cc1 | 0.8 µM
CN1CCC[C@H]1COc1cncc(/C=C/c2ccncc2)c1 | 7.6 µM
CN1CCC[C@H]1COc1cncc(-c2cccnc2)c1 | 24.7 µM
Cc1ccccc1-c1cncc(OC[C@@H]2CCCN2C)c1 | 1.25 µM
CN1CCC[C@H]1COc1cncc(-c2ccccc2)c1 | 5.1 µM
CN1CCC[C@H]1COc1cncc(-c2cc(C(F)(F)F)cc(C(F)(F)F)c2)c1 | 2.35 µM
CN1CCC[C@H]1COc1cncc(C#Cc2ccccc2)c1 | 0.79 µM
CN1CCC[C@H]1COc1cncc(-c2cnc3ccccc3c2)c1 | 5.1 µM
CN1CCC[C@H]1COc1cncc(CCc2ccncc2)c1 | 6.3 µM
CN1CCC[C@H]1COc1cncc(-c2ccc(C(F)(F)F)cc2)c1 | 5.71 µM
CN1CCC[C@H]1COc1cncc(-c2cccc(N)c2)c1 | 6.9 µM
CN1CCC[C@H]1COc1cncc(-c2cccc([N+](=O)[O-])c2)c1 | 2.33 µM
CN1CCC[C@H]1COc1cncc(-c2ccco2)c1 | 7.9 µM
CN1CCC[C@H]1COc1cncc(-c2ccc(Cl)cc2)c1 | 1.99 µM
CN1CCC[C@H]1COc1cncc(-c2cc3ccccc3o2)c1 | 2.9 µM
CN1CCC[C@H]1COc1cncc(-c2ccc3ccccc3c2)c1 | 3.4 µM

The compounds below were run against Nicotinic acetylcholine receptor alpha3/betaX (Homo sapiens) (UniProt P11230+P17787+P30926+P32297+Q05901) (assay: Antagonistic activity against Nicotinic acetylcholine receptor (alpha3-betaX subunit) in IMR 32 cell line using 100 uM of (-)-nicotine as agonist).
Assay type: functional, cell-based

Structure (SMILES) | Max efficacy
CN1CCC[C@H]1COc1cncc(-c2cncnc2)c1 | 38.9%

The compounds below were run against Neuronal acetylcholine receptor; alpha4/beta2 (Rattus norvegicus, UniProt P09483+P12390) (assay: In vitro ability to displace [3H](-)-cytisine binding to whole rat brain membranes at Nicotinic acetylcholine receptor alpha4-beta2).
Design: species or system Membrane

Neuronal acetylcholine receptor; alpha4/beta2, sequence (P09483 whole entry): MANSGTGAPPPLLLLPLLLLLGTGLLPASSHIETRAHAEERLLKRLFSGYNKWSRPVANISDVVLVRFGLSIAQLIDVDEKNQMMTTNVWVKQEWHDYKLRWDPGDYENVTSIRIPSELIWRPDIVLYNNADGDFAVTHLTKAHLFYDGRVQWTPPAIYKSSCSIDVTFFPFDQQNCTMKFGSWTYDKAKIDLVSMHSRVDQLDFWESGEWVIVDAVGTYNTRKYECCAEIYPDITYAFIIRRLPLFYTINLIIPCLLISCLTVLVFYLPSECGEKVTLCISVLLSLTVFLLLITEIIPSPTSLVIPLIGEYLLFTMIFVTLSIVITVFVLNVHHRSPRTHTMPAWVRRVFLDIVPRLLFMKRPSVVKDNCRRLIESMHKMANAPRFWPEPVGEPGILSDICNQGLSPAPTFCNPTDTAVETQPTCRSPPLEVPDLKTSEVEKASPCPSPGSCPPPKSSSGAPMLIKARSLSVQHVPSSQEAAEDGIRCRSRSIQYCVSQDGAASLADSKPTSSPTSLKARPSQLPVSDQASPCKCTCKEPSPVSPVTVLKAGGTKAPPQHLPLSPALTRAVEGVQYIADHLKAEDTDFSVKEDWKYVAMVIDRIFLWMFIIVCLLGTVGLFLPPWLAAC
Neuronal acetylcholine receptor; alpha4/beta2, sequence (P12390 whole entry): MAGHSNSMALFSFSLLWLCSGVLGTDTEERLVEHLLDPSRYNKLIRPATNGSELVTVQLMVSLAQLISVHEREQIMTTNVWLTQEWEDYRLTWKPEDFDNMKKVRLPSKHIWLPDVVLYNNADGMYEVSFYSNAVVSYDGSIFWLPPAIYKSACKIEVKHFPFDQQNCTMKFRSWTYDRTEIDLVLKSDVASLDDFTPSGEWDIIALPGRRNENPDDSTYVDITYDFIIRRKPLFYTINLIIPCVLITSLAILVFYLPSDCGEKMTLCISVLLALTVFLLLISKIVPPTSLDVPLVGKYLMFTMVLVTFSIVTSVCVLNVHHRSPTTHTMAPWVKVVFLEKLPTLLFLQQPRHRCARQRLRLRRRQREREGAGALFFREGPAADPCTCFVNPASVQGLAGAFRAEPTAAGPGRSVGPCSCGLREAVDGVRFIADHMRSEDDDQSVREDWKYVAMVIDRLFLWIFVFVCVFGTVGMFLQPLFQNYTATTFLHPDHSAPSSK

Structure (SMILES) | Ki
Cc1ccc(C#Cc2cncc(OC[C@@H]3CCCN3C)c2)cc1 | 0.00031 µM
CN1CCC[C@H]1COc1cncc(/C=C/c2ccncc2)c1 | 0.00012 µM
CN1CCC[C@H]1COc1cncc(-c2cncnc2)c1 | 0.00037 µM
CN1CCC[C@H]1COc1cncc(-c2cc3ccccc3o2)c1 | 0.00015 µM
